Reference: paper PMC6576746, “Rational discovery of dual-indication multi-target PDE/Kinase inhibitor for precision anti-cancer therapy using structural systems pharmacology” (PLoS Computational Biology, 2019)

Legend:
Assay in all cases: biochemical
Design in all cases: DiscoverX KinomeScan competition binding assay across human kinases; per cent of control at 10 and 100 uM
[1] = molecular target: T1, RPS6KA5(Kin.Dom.2-C-terminal) (Homo sapiens, UniProt O75582); conditions: competition binding, % of control; read-out: Percent Control (100 uM Levosimendan)
T1 construct: Kin.Dom.2-C-terminal
Outline: (§1)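 Binding is expressed as %control, normalised between positive and negative control signals. The compound (levosimendan) was tested at 10 μM and 100 μM in the DiscoverX KinomeScan competition binding format against human kinases.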

ACVR2A = ACVR2A (Homo sapiens, UniProt P27037); conditions: competition binding, % of control
Outline: as §1

NDR2 = molecular target: T2, NDR2 (Homo sapiens, UniProt Q9Y2H1); conditions: competition binding, % of control; read-out: Percent Control (100 uM Levosimendan)
T2 construct: gene STK38L
Outline: as §1

RET(V804M) = RET(V804M) (Homo sapiens, UniProt P07949, V804M); conditions: competition binding, % of control; read-out: Percent Control (100 uM Levosimendan)
Outline: as §1

LATS1 = LATS1 (Homo sapiens, UniProt O95835); conditions: competition binding, % of control; read-out: Percent Control (100 uM Levosimendan)
Outline: as §1

CSNK2A2 = CSNK2A2 (Homo sapiens, UniProt P19784); conditions: competition binding, % of control; read-out: Percent Control (100 uM Levosimendan)
Outline: as §1

PIP5K2B = molecular target: T3, PIP5K2B (Homo sapiens, UniProt P78356); conditions: competition binding, % of control
T3 construct: gene PIP4K2B
Outline: as §1

DCAMKL2 = molecular target: T4, DCAMKL2 (Homo sapiens, UniProt Q8N568); conditions: competition binding, % of control; read-out: Percent Control (100 uM Levosimendan)
T4 construct: gene DCLK2
Outline: as §1

CAMK2A = CAMK2A (Homo sapiens, UniProt Q9UQM7); conditions: competition binding, % of control; read-out: Percent Control (100 uM Levosimendan)
Outline: as §1

CASK = CASK (Homo sapiens, UniProt O14936); conditions: competition binding, % of control; read-out: Percent Control (100 uM Levosimendan)
Outline: as §1

AKT2 = AKT2 (Homo sapiens, UniProt P31751); conditions: competition binding, % of control; read-out: Percent Control (100 uM Levosimendan)
Outline: as §1

HPK1 = molecular target: T5, HPK1 (Homo sapiens, UniProt Q92918); conditions: competition binding, % of control; read-out: Percent Control (100 uM Levosimendan)
T5 construct: gene MAP4K1
Outline: as §1

PFTK1 = molecular target: T6, PFTK1 (Homo sapiens, UniProt O94921); conditions: competition binding, % of control; read-out: Percent Control (100 uM Levosimendan)
T6 construct: gene CDK14
Outline: as §1

CDK4 = CDK4 (Homo sapiens, UniProt P11802); conditions: competition binding, % of control; read-out: Percent Control (100 uM Levosimendan)
Outline: as §1

WNK1 = WNK1 (Homo sapiens, UniProt Q9H4A3); conditions: competition binding, % of control; read-out: Percent Control (100 uM Levosimendan)
Outline: as §1

PKMYT1 = PKMYT1 (Homo sapiens, UniProt Q99640); conditions: competition binding, % of control; read-out: Percent Control (100 uM Levosimendan)
Outline: as §1

SNRK = SNRK (Homo sapiens, UniProt Q9NRH2); conditions: competition binding, % of control; read-out: Percent Control (100 uM Levosimendan)
Outline: as §1

EPHA6 = EPHA6 (Homo sapiens, UniProt Q9UF33); conditions: competition binding, % of control; read-out: Percent Control (100 uM Levosimendan)
Outline: as §1

PAK6 = PAK6 (Homo sapiens, UniProt Q9NQU5); conditions: competition binding, % of control; read-out: Percent Control (100 uM Levosimendan)
Outline: as §1

[2] = read-out: Percent Control (10 uM Levosimendan)
[3] = read-out: Percent Control (100 uM Levosimendan)

Chain of ACVR2A (P27037 whole entry): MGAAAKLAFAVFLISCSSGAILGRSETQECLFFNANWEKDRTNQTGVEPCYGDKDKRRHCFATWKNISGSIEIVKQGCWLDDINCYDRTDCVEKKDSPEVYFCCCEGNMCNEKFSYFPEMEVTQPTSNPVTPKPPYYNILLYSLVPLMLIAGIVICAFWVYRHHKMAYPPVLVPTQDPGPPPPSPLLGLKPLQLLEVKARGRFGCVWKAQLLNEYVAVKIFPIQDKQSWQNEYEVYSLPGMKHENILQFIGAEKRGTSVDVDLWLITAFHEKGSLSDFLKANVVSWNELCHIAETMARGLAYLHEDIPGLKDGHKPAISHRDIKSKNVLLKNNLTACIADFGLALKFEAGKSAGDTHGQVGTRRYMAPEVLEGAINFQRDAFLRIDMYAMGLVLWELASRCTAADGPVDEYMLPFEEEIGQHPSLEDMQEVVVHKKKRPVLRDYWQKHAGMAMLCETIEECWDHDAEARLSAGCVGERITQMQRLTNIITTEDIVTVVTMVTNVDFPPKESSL
T3 sequence (P78356 whole entry): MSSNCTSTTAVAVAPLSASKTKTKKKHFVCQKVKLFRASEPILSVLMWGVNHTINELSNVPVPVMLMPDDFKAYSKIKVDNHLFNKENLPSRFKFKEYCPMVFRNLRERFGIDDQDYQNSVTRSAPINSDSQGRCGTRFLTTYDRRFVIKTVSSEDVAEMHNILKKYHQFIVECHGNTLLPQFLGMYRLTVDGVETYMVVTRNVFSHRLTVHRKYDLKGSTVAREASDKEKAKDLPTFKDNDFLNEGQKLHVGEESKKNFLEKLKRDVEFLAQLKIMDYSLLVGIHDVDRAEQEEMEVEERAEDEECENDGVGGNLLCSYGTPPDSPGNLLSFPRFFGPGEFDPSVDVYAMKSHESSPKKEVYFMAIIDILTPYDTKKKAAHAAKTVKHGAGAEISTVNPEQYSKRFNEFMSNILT
Chain of CASK (O14936 whole entry): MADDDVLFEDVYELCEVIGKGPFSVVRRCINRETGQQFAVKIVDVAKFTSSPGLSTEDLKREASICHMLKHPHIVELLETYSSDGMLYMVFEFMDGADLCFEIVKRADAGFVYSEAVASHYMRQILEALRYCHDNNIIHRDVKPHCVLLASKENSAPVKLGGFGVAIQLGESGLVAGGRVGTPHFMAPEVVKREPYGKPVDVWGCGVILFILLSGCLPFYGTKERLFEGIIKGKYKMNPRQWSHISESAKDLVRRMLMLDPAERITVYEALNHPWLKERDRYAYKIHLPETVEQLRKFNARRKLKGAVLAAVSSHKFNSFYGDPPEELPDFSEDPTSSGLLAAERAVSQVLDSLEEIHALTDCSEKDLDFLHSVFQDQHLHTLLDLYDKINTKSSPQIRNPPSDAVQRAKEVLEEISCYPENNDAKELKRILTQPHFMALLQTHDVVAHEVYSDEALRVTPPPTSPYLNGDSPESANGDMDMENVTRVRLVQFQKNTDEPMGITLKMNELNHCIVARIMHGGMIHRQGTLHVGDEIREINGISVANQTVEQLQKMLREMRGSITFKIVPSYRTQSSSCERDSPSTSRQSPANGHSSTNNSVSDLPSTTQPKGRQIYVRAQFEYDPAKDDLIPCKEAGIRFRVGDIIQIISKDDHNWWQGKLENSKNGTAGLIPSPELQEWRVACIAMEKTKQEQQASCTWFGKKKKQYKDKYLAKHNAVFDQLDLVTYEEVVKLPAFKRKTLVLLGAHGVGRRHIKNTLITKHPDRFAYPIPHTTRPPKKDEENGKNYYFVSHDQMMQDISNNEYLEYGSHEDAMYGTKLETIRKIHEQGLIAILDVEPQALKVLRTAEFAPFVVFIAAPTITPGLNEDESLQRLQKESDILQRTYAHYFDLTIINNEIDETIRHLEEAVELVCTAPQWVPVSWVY
Chain of SNRK (Q9NRH2 whole entry): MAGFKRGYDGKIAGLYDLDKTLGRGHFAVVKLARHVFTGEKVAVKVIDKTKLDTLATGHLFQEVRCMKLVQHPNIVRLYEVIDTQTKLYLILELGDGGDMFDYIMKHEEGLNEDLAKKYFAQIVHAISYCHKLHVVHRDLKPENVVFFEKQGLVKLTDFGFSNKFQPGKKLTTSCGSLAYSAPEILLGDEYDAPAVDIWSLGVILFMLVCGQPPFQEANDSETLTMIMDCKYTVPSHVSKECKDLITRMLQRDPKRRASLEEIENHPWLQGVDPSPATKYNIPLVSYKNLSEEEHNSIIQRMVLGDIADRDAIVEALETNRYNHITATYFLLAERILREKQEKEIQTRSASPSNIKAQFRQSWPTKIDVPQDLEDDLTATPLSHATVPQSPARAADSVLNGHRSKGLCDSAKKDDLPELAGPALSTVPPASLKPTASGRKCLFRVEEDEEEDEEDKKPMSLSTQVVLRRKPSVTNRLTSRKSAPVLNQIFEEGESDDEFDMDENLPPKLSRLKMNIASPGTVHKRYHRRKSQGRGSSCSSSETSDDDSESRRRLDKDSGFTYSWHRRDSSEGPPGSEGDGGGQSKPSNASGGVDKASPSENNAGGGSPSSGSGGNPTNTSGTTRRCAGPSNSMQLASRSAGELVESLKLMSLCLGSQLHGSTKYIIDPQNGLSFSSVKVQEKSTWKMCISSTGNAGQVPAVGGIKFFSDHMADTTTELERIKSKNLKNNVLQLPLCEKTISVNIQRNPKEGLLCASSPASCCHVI
T4 sequence (Q8N568 whole entry): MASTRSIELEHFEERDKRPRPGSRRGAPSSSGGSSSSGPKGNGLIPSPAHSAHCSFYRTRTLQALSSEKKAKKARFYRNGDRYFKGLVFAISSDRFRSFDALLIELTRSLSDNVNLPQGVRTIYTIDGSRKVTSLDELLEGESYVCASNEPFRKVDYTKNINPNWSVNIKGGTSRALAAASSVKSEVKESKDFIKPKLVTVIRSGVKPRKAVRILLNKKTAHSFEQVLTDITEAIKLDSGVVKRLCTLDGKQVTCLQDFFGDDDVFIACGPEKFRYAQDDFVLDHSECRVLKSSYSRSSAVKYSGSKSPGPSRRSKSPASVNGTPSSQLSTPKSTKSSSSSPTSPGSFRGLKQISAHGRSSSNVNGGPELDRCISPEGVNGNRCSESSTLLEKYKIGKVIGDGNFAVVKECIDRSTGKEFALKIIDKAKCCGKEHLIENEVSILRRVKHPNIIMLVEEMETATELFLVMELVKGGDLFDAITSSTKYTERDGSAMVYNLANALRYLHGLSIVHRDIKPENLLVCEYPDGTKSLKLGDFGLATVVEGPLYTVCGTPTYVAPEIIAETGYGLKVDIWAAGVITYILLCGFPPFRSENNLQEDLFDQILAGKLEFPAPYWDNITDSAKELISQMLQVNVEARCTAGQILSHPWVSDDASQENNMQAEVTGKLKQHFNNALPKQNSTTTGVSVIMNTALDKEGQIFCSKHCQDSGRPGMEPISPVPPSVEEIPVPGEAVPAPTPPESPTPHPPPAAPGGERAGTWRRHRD
Chain of EPHA6 (Q9UF33 whole entry): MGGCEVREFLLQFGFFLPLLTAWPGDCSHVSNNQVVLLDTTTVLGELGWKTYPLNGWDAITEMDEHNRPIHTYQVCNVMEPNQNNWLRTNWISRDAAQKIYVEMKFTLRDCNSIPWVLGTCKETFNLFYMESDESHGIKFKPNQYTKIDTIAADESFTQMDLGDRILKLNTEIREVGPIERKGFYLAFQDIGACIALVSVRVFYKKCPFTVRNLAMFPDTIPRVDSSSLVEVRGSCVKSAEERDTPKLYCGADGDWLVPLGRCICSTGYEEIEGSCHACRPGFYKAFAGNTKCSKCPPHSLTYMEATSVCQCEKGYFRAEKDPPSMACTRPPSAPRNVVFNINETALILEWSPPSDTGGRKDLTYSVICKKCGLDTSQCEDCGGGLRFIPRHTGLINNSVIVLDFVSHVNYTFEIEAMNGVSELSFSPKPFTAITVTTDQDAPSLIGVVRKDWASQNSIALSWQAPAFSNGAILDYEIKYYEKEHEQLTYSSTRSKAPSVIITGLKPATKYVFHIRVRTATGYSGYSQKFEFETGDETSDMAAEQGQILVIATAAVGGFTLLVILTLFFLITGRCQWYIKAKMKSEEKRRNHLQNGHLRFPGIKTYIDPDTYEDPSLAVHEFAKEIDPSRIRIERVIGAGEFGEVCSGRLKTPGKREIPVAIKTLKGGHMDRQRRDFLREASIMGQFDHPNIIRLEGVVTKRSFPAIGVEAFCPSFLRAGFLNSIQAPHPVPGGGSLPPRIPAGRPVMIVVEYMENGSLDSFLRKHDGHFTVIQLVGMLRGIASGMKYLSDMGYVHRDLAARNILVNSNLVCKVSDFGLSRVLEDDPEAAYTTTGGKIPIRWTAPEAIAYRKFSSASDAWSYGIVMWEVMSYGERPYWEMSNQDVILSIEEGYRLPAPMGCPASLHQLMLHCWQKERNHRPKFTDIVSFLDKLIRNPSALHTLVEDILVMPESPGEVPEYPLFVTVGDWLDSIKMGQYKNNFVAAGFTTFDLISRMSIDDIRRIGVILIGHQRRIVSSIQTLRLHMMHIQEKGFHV
T6 sequence (O94921 whole entry): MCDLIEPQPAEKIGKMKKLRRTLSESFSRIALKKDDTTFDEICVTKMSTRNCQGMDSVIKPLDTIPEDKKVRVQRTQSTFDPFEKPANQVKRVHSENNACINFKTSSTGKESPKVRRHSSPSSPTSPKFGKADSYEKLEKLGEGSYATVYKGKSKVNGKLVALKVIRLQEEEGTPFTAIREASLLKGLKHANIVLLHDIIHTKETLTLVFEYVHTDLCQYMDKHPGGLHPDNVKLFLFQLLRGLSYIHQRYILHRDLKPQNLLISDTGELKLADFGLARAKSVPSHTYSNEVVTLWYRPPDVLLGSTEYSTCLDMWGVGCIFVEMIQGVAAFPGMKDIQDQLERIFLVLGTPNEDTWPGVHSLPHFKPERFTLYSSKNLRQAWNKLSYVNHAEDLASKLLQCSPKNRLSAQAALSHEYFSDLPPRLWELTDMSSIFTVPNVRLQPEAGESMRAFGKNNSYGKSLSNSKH

remaining binding at 100 µM [1]: 100%
remaining binding at 10 µM (ACVR2A; [2]): 100%
remaining binding at 100 µM (ACVR2A; [3]): 46%
remaining binding at 100 µM (NDR2): 96%
remaining binding at 100 µM (RET(V804M)): 80%
remaining binding at 100 µM (LATS1): 100%
remaining binding at 100 µM (CSNK2A2): 73%
remaining binding at 10 µM (PIP5K2B; [2]): 92%
remaining binding at 100 µM (PIP5K2B; [3]): 14%
remaining binding at 100 µM (DCAMKL2): 100%
remaining binding at 100 µM (CAMK2A): 73%
remaining binding at 100 µM (CASK): 88%
remaining binding at 100 µM (AKT2): 64%
remaining binding at 100 µM (HPK1): 95%
remaining binding at 100 µM (PFTK1): 67%
remaining binding at 100 µM (CDK4): 100%
remaining binding at 100 µM (WNK1): 100%
remaining binding at 100 µM (PKMYT1): 57%
remaining binding at 100 µM (SNRK): 100%
remaining binding at 100 µM (EPHA6): 98%
remaining binding at 100 µM (PAK6): 70%
SMILES: C[C@@H]1CC(=O)NN=C1c1ccc(NN=C(C#N)C#N)cc1 [levosimendan]
